# Experiment: recombinant UMI read abundance after kanamycin selection (control-corrected) (log10(CPM+1)); higher = more efficient recombination; extreme values may be limits of the assay; sequences stand for … in AGTGCAGAGAAAATCGGCCAGTTTTCTCTGCCTGCAGTCCGCATGCCGTGGGACCCCTTGGGTTCTAACCTGTTGCCTAGATTTATGCAGCGGACTGCCTTTCTCCCAAAGTGATAAACCGG…AGGTTGGTTTCACT; site = the 11-nt donor
# Procedure, shortened: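 After plating on IPTG (0.07 mM) plus kanamycin, or unselected, in two replicates, recombinant UMIs were PCR-amplified across the donor–target junction and sequenced. The cells were Escherichia coli co-electroporated with a UMI-tagged donor and donor-binding-loop pair library and a target plasmid with a fixed target and T7-inducible IS621 bridge recombinase. Values are log10(CPM+1), with CPM averaged over replicates and scaled by control-derived factors.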
row,Sequence,recombinant UMI read abundance (log10)
1,GATTTGGCATGGACCGGTTTTCCCGGTAATCCGTATTTGTG (site CATTTGGCTCA),0.309
2,GATTTGGCATGGACCGGTTTTCCCGGTAATCCGTATTTGTG (site GATTTGGCTCA),0.152
3,GATTTGGCATGGACCGGTTTTCCCGGTAATCCGTATTTGTG (site TATTTGGCTCA),0.0288
4,GCAAAAGCATGGACCGGTTTTCCCGGTAATCCGTATTTGCC (site GCAAAAGCTGG),0.282
5,GCAACCTCATGGACCGGTTTTCCCGGTAATCCGTATTTGCT (site GCAACCTCTAG),1.91
6,GCAACTGCATGGACCGGTTTTCCCGGTAATCCGTATTTGGC (site GCAACTGCTGC),1.95
7,GCAAGAACATGGACCGGTTTTCCCGGTAATCCGTATTTGAC (site GCAAGAACTGT),2.57
8,GCAAGCGCATGGACCGGTTTTCCCGGTAATCCGTATTTGAT (site GCAAGCGCTAT),2.29
9,GCACCATCATGGACCGGTTTTCCCGGTAATCCGTATTTGTA (site GCACCATCTTA),2.47
10,GCACGACCATGGACCGGTTTTCCCGGTAATCCGTATTTGGG (site GCACGACCTCC),0.0133
11,GCACGCGCATGGACCGGTTTTCCCGGTAATCCGTATTTGGT (site GCACGCGCTAC),1.22
12,GCAGATTCATGGACCGGTTTTCCCGGTAATCCGTATTTGGG (site GCAGATTCTCC),0.609
13,GCAGGTACATGGACCGGTTTTCCCGGTAATCCGTATTTGAC (site GAAGGTACTGT),0.00935
14,GCAGGTACATGGACCGGTTTTCCCGGTAATCCGTATTTGAC (site GCAGGTACTGT),1.91
15,GCAGGTACATGGACCGGTTTTCCCGGTAATCCGTATTTGAC (site GGAGGTACTGT),0
16,GCAGGTACATGGACCGGTTTTCCCGGTAATCCGTATTTGAC (site GTAGGTACTGT),2.1
17,GCAGTAACATGGACCGGTTTTCCCGGTAATCCGTATTTGCA (site ACAGTATCTTG),0.498
18,GCAGTAACATGGACCGGTTTTCCCGGTAATCCGTATTTGCA (site GCAGTAACTTG),2.83
19,GCAGTCCCATGGACCGGTTTTCCCGGTAATCCGTATTTGCC (site GCAGTCCCTGG),0
20,GCAGTCGCATGGACCGGTTTTCCCGGTAATCCGTATTTGCG (site GAAGTCGCTCG),0.00976
21,GCAGTCGCATGGACCGGTTTTCCCGGTAATCCGTATTTGCG (site GCAGTCGCTCG),0.764
22,GCAGTCGCATGGACCGGTTTTCCCGGTAATCCGTATTTGCG (site GGAGTCGCTCG),0.00641
23,GCAGTCGCATGGACCGGTTTTCCCGGTAATCCGTATTTGCG (site GTAGTCGCTCG),0.0117

row,Sequence,recombinant UMI read abundance (log10)
1,GCAGTCTCATGGACCGGTTTTCCCGGTAATCCGTATTTGCA (site ACAGTATCTTG),2.38
2,GCAGTCTCATGGACCGGTTTTCCCGGTAATCCGTATTTGCA (site GCAGTCTCTTG),2.87
3,GCATATCCATGGACCGGTTTTCCCGGTAATCCGTATTTGAC (site GCATATCCTGT),1.39
4,GCATCGGCATGGACCGGTTTTCCCGGTAATCCGTATTTGCC (site GCATCGGCTGG),0.599
5,GCCAACTCATGGACCGGTTTTCCCGGTAATCCGTATTTGCG (site GCCAACTCTCG),1.98
6,GCCAATTCATGGACCGGTTTTCCCGGTAATCCGTATTTGGG (site GCCAATTCTCC),0.183
7,GCCACAGCATGGACCGGTTTTCCCGGTAATCCGTATTTGCT (site GCCACAGCTAG),1.2
8,GCCACGCCATGGACCGGTTTTCCCGGTAATCCGTATTTGTA (site ACCACGCCTTA),0.145
9,GCCACGCCATGGACCGGTTTTCCCGGTAATCCGTATTTGTA (site CCCACGCCTTA),0.0175
10,GCCACGCCATGGACCGGTTTTCCCGGTAATCCGTATTTGTA (site GACACGCCTTA),0.0176
11,GCCACGCCATGGACCGGTTTTCCCGGTAATCCGTATTTGTA (site GCAACGCCTTA),0
12,GCCACGCCATGGACCGGTTTTCCCGGTAATCCGTATTTGTA (site GCCAAGCCTTA),0.00579
13,GCCACGCCATGGACCGGTTTTCCCGGTAATCCGTATTTGTA (site GCCACACCTTA),0.00375
14,GCCACGCCATGGACCGGTTTTCCCGGTAATCCGTATTTGTA (site GCCACCCCTTA),0.0213
15,GCCACGCCATGGACCGGTTTTCCCGGTAATCCGTATTTGTA (site GCCACGACTTA),0.00736
16,GCCACGCCATGGACCGGTTTTCCCGGTAATCCGTATTTGTA (site GCCACGCCTAA),0.0376
17,GCCACGCCATGGACCGGTTTTCCCGGTAATCCGTATTTGTA (site GCCACGCCTCA),0.00817
18,GCCACGCCATGGACCGGTTTTCCCGGTAATCCGTATTTGTA (site GCCACGCCTGA),0
19,GCCACGCCATGGACCGGTTTTCCCGGTAATCCGTATTTGTA (site GCCACGCCTTA),0.289
20,GCCACGCCATGGACCGGTTTTCCCGGTAATCCGTATTTGTA (site GCCACGCCTTC),0.00289
21,GCCACGCCATGGACCGGTTTTCCCGGTAATCCGTATTTGTA (site GCCACGCCTTG),0.0133
22,GCCACGCCATGGACCGGTTTTCCCGGTAATCCGTATTTGTA (site GCCACGCCTTT),0.0209
23,GCCACGCCATGGACCGGTTTTCCCGGTAATCCGTATTTGTA (site GCCACGGCTTA),0.0146

row,Sequence,recombinant UMI read abundance (log10)
1,GCCACGCCATGGACCGGTTTTCCCGGTAATCCGTATTTGTA (site GCCACGTCTTA),1.45
2,GCCACGCCATGGACCGGTTTTCCCGGTAATCCGTATTTGTA (site GCCACTCCTTA),0
3,GCCACGCCATGGACCGGTTTTCCCGGTAATCCGTATTTGTA (site GCCAGGCCTTA),0.013
4,GCCACGCCATGGACCGGTTTTCCCGGTAATCCGTATTTGTA (site GCCATGCCTTA),0.465
5,GCCACGCCATGGACCGGTTTTCCCGGTAATCCGTATTTGTA (site GCCCCGCCTTA),0.00659
6,GCCACGCCATGGACCGGTTTTCCCGGTAATCCGTATTTGTA (site GCCGCGCCTTA),0.00414
7,GCCACGCCATGGACCGGTTTTCCCGGTAATCCGTATTTGTA (site GCCTCGCCTTA),0.183
8,GCCACGCCATGGACCGGTTTTCCCGGTAATCCGTATTTGTA (site GCGACGCCTTA),0.00719
9,GCCACGCCATGGACCGGTTTTCCCGGTAATCCGTATTTGTA (site GCTACGCCTTA),0.0265
10,GCCACGCCATGGACCGGTTTTCCCGGTAATCCGTATTTGTA (site GGCACGCCTTA),0.204
11,GCCACGCCATGGACCGGTTTTCCCGGTAATCCGTATTTGTA (site GTCACGCCTTA),0.00531
12,GCCACGCCATGGACCGGTTTTCCCGGTAATCCGTATTTGTA (site TCCACGCCTTA),0.00575
13,GCCACTCCATGGACCGGTTTTCCCGGTAATCCGTATTTGGG (site GCCACTCCTCC),0.0141
14,GCCACTCCATGGACCGGTTTTCCCGGTAATCCGTATTTGTA (site GCCACACCTTA),0.0288
15,GCCACTCCATGGACCGGTTTTCCCGGTAATCCGTATTTGTA (site GCCACCCCTTA),0.0122
16,GCCACTCCATGGACCGGTTTTCCCGGTAATCCGTATTTGTA (site GCCACGCCTTA),0.00354
17,GCCACTCCATGGACCGGTTTTCCCGGTAATCCGTATTTGTA (site GCCACTCCTTA),1.35
18,GCCAGGCCATGGACCGGTTTTCCCGGTAATCCGTATTTGAA (site GCCAGGCCTTT),0.0165
19,GCCCAATCATGGACCGGTTTTCCCGGTAATCCGTATTTGGT (site GCCCAATCTAC),1.53
20,GCCCAGCCATGGACCGGTTTTCCCGGTAATCCGTATTTGGT (site GCCCAGCCTAC),0.0164
21,GCCCGCTCATGGACCGGTTTTCCCGGTAATCCGTATTTGCG (site GCCCGCTCTCG),2.44
22,GCCCGTACATGGACCGGTTTTCCCGGTAATCCGTATTTGCT (site GCCCGTACTAG),2.32

# — the supplement of paper PMC11208160
